Like-named read-outs stand apart in the source and are kept apart here.
System: Hypertensive Activity of Angiotensin I
Experiment: Effect against hypertensive activity of angiotensin I in anaesthetized-cannulated rats after oral dosing
Type: in vivo, Male rats (Sprague-Dawley)
Details: Rattus norvegicus, 138 µM/kg orally, corrected by angiotensin II response
Description: Male rats (Sprague-Dawley) weighing 230 to 350 g, which were fed under free access to drinking water and feeds, were used as experimental animals. The rats were anaesthetized with intraperitoneal administration of pentobarbital sodium (50 mg/kg) on the day before the test day, and a polyethylene tube was inserted into each femoral artery for measurement of blood pressare and the femoral vein for injection of angiotensin I and II, and then the tubes were fixed.
On the test day, an average blood pressure in the control phase was recorded on an electric haemedynamemeter (MP-4T model manufactured by Nippon Koden, Japan) and, thereafter, angiotensin I and then angionensin II were injected through the femoral vein at a dose of […] and 100 ng/kg, respectively, to measure the hypertensive activity. Then, 138 µM/kg of the compound of this invention were administrated orally as an aqueous solution or an aqueous gum arabic suspension, […], angiotensin I and II were injected repeatedly to trace hypertensive reactions. In calculating the percentage inhibition to the hypertensive activity of angiotensin 1, the percentage inhibitory value was corrected based on the variation with time in the hypertensive reaction by anziotensin II.

[1] = 20 min, After 20 min, read-out: Percent Inhibition (%) against Hyper-tensive Reaction by Angiotensin I After 20 min
[2] = 1 h, After 60 min, read-out: Percent Inhibition (%) against Hyper-tensive Reaction by Angiotensin I After 60 min
[3] = 2 h, After 120 min, read-out: Percent Inhibition (%) against Hyper-tensive Reaction by Angiotensin I After 120 min

SMILES	inhibition in vivo at 138 µM, 138 µmol/kg [1] [%]	inhibition in vivo at 138 µM, 138 µmol/kg [2] [%]	inhibition in vivo at 138 µM, 138 µmol/kg [3] [%]
CC(=O)SCC(CSC(C)=O)C(=O)N1Cc2cc(O)c(O)cc2C[C@H]1C(=O)O [Example 56, (S)-2-(3-acetylthio-2-acetylthiomethyl-propionyl)-6,7-dihydroxy-1,2,3,4-tetrahydroisoquinoline-3-carboxylic acid]	80	84	69
CC(=O)SCC(CSC(C)=O)C(=O)N1Cc2cc(C(C)C)ccc2CC1C(=O)O (stereo not drawn) [Example 61, 2-(3-aeetylthio-2-acetylthiomethylpropionyl)-7-isopropyl-1,2,3,4-tetrahydroisoquinoline-3-carboxylic acid]	78	84	58
CC(=O)SCC(C)C(=O)N1Cc2cc3c(cc2CC1C(=O)O)CCCC3 (stereo not drawn) [Example 4]	90	79	63
O=C(O)C1Cc2cc3c(cc2CN1C(=O)C(CS)CS)OCO3 (stereo not drawn) [Example 69, 2-(3-mercapto-2-mercapthylpropionyl)-6,7-methylenedioxy-1,2,3,4-tetrahydroisooquinoline-3-carboxylic acid]	95	77	76
CC(=O)SCC(C)C(=O)N1Cc2cc(C(C)(C)C)ccc2CC1C(=O)O (stereo not drawn) [Example 3, 2-(3-acetylthio-2-methylpropionyl)-7-tert-utyl-1,2,3,4-tetrahydroisoquinoline-3-carboxylic acid]	86	94	90
CC(=O)SCC(CSC(C)=O)C(=O)N1Cc2cc3c(cc2CC1C(=O)O)CCCC3 (stereo not drawn) [Example 58, 2-(3-acetylthio-2-acetylthiomethylpropionyl)-1,2,3,4,6,7,8,9-octahydrobenzo[g]isoquinoline-3--carboxylic aeid]	80	78	66
CC(CS)C(=O)N1Cc2cc(C(C)(C)C)ccc2C[C@H]1C(=O)O (stereo partly drawn) [Example 51, (3S)-7-tert-butyl-2-(3-mercapto-2-methylproplonyl)-1,2,3,4-tetrahydroisoquinoline-3-carboxylic acid]	100	100	78
COc1ccc2c(c1)CN(C(=O)C(C)CSC(C)=O)C(C(=O)O)C2 (stereo not drawn) [Example 23, 2-(3-acetylthio-2-methylpropionyl)-7-methoxy-1,2, 3.4-tetrahydroisoquinoline-3-carboxylic acid]	80	82	87
CC(=O)SCC(C)C(=O)N1[C@H](C)c2cc(O)c(O)cc2C[C@H]1C(=O)O (stereo partly drawn) [Example 5, (M, 3S)-2-(5-acetylthio-2-methylpropionyl)-6,7-dihycroxy-1-methyl-1,2,3,4-tetrahydroisquinoline-3-carboxylie acid]	84	98	96
CC(=O)SCC(C)C(=O)N1Cc2cc(N3CCCC3)ccc2CC1C(=O)O (stereo not drawn) [Example 43]	100	95	87
CC(=O)SCC(CSC(C)=O)C(=O)N1Cc2ccc(O)cc2CC1C(=O)O (stereo not drawn) [Example 60, 2-(3-acetylthio-2-acetylthiomethylpropionyl)-6-hydroxy-1,2,3,4-tetrahydroisoquinoline-3-carboxylic acid]	82	77	71

From patent EP0018104A2, “Tetrahydroisoquinolines, their production and the compounds and pharmaceutical compositions containing them for use in the prevention or treatment of hypertension” (Takeda Chemical Industries, Ltd., priority 1979, dated 1980)
